Test results: patent publication US20260125382A1, “COMPOUNDS FOR INHIBITING OR DEGRADING CDK2 AND/OR CDK9 AND MEDICINAL USE THEREOF” (KOREA RESEARCH INSTITUTE OF CHEMICAL TECHNOLOGY, priority 2022, published 2026)

Experiments:
CDK2 = target: T1, CDK2 (Homo sapiens, UniProt P24941); assay: CDK protein degradation activity (Western blotting), CDK2; assay type: cell-based; details: MDA-MB-231 cells, 16 hours, Western blot
T1 construct: endogenous in cells; host or cells: MDA-MB-231
How it was run: (§1)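 MDA-MB-231; cmpd 100 nM / 1 μM / 10 μM final vs DMSO, 16 h. Triton X-100 lysates (pH 7.5, phosphatase/protease inhibitors) → SDS-PAGE → Western blot, anti-CDK2, anti-CDK9, tubulin loading control; densitometry.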

CDK9 = target: T2, CDK9 (Homo sapiens, UniProt P50750); assay: CDK protein degradation activity (Western blotting), CDK9; assay type: cell-based; details: MDA-MB-231 cells, 16 hours, Western blot
T2 construct: endogenous in cells; host or cells: MDA-MB-231
T2 sequence (P50750 whole entry): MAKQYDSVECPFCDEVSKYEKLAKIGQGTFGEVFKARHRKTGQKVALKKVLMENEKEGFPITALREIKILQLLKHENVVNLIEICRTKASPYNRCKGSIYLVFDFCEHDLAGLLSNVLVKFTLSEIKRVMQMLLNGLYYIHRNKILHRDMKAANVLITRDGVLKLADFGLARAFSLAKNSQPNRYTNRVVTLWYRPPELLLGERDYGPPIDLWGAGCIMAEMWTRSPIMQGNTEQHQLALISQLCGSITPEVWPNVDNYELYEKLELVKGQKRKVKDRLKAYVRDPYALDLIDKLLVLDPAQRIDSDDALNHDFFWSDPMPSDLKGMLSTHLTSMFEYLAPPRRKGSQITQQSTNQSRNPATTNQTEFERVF
How it was run: as §1

Structure (SMILES)	Enzyme degradation CDK2 (% remaining) @ 0.1 μM (CDK2)	Enzyme degradation CDK2 (% remaining) @ 1 μM (CDK2)	Enzyme degradation CDK2 (% remaining) @ 10 μM (CDK2)	Enzyme degradation CDK9 (% remaining) @ 0.1 μM (CDK9)	Enzyme degradation CDK9 (% remaining) @ 1 μM (CDK9)	Enzyme degradation CDK9 (% remaining) @ 10 μM (CDK9)
O=C1CC[C@H](N2C(=O)c3ccc(N4CCC(CN5CCC(CNc6ncnc7c6ncn7[C@H]6C[C@@H](NC(=O)c7c(Cl)cccc7Cl)C6)CC5)CC4)cc3C2=O)C(=O)N1 [Compound 173, 2,6-dichloro-N-((1s,3s)-3-(6-(((1-((1-(2-(2,6-dioxopiperidin-3-yl)-1,3-dioxoisoindolin-5-yl)piperidin-4-yl)methyl)piperidin-4-yl)methyl)amino)-9H-purin-9-yl)cyclobutyl)benzamide]	30%	30%	50%	50%	20%	0%
O=C1CC[C@H](N2C(=O)c3ccc(OCC(=O)N4CCC(CN5CCN(c6ccc(Nc7ncnc8c7ncn8C7CC(NC(=O)Cc8ccccc8)C7)cc6)CC5)CC4)cc3C2=O)C(=O)N1 (stereo partly drawn) [Compound 175, N-((1s,3s)-3-(6-((4-(4-((1-(2-((2-(2,6-dioxopiperidin-3-yl)-1,3-dioxoisoindolin-5-yl)oxy)acetyl)piperidin-4-yl)methyl)piperazin-1-yl)phenyl)amino)-9H-purin-9-yl)cyclobutyl)-2-phenylacetamide]	100%	80%	30%	80%	30%	0%
O=C1CC[C@H](N2C(=O)c3cccc(N4CCC(CN5CCN(c6ccc(Nc7ncnc8c7ncn8C7CC(NC(=O)Cc8ccccc8)C7)cc6)CC5)CC4)c3C2=O)C(=O)N1 (stereo partly drawn) [Compound 178, N-((1s,3s)-3-(6-((4-(4-((1-(2-(2,6-dioxopiperidin-3-yl)-1,3-dioxoisoindolin-4-yl)piperidin-4-yl)methyl)piperazin-1-yl)phenyl)amino)-9H-purin-9-yl)cyclobutyl)-2-phenylacetamide]	30%	20%	20%	10%	0%	0%
O=C1CC[C@H](N2C(=O)c3ccc(N4CCC(CN5CCN(c6ccc(Nc7ncnc8c7ncn8[C@H]7C[C@@H](NC(=O)Cc8ccccc8)C7)cc6)CC5)CC4)cc3C2=O)C(=O)N1 [Compound 179, N-((1s,3s)-3-(6-((4-(4-((1-(2-(2,6-dioxopiperidin-3-yl)-1,3-dioxoisoindolin-5-yl)piperidin-4-yl)methyl)piperazin-1-yl)phenyl)amino)-9H-purin-9-yl)cyclobutyl)-2-phenylacetamide]	10%	0%	0%	10%	0%	0%
O=C1CCN(c2coc3cc(C(=O)N4CCC(CN5CCN(c6ccc(Nc7ncnc8c7ncn8[C@H]7C[C@@H](NC(=O)Cc8ccccc8)C7)cc6)CC5)CC4)ccc23)C(=O)N1 [Compound 187, N-((1s,3s)-3-(6-((4-(4-((1-(3-(2,4-dioxotetrahydropyrimidin-1(2H)-yl)benzofuran-6-carbonyl)piperidin-4-yl)methyl)piperazin-1-yl)phenyl)amino)-9H-purin-9-yl)cyclobutyl)-2-phenylacetamide]	30%	10%	20%	10%	0%	0%
O=C1CC[C@H](N2C(=O)C=C(Nc3cccc(CC(=O)N4CCC(CN5CCN(c6ccc(Nc7ncnc8c7ncn8C7CC(NC(=O)Cc8ccccc8)C7)cc6)CC5)CC4)c3)C2=O)C(=O)N1 (stereo partly drawn) [Compound 188, N-((1s,3s)-3-(6-((4-(4-((1-(2-(3-((1-(2,6-dioxopiperidin-3-yl)-2,5-dioxo-2,5-dihydro-1H-pyrrol-3-yl)amino)phenyl)acetyl)piperidin-4-yl)methyl)piperazin-1-yl)phenyl)amino)-9H-purin-9-yl)cyclobutyl)-2-phenylacetamide]	80%	70%	60%	20%	20%	10%
O=C1CC[C@H](N2C(=O)C=C(N3CCC(C(=O)N4CCC(CN5CCN(c6ccc(Nc7ncnc8c7ncn8[C@H]7C[C@@H](NC(=O)Cc8ccccc8)C7)cc6)CC5)CC4)CC3)C2=O)C(=O)N1 [Compound 189, N-((1s,3s)-3-(6-((4-(4-((1-(1-(1-(2,6-dioxopiperidin-3-yl)-2,5-dioxo-2,5-dihydro-1H-pyrrol-3-yl)piperidin-4-carbonyl)piperidin-4-yl)methyl)piperazin-1-yl)phenyl)amino)-9H-purin-9-yl)cyclobutyl)-2-phenylacetamide]	30%	20%	40%	0/0/0%	0/0/0%	0/0/0%

Second part, the molecule after the results:

Enzyme degradation CDK2 (% remaining) @ 0.1 μM (CDK2)	Enzyme degradation CDK2 (% remaining) @ 1 μM (CDK2)	Enzyme degradation CDK2 (% remaining) @ 10 μM (CDK2)	Enzyme degradation CDK9 (% remaining) @ 0.1 μM (CDK9)	Enzyme degradation CDK9 (% remaining) @ 1 μM (CDK9)	Enzyme degradation CDK9 (% remaining) @ 10 μM (CDK9)	Structure (SMILES)
50%	10%	10%	30%	0%	0%	O=C1CC[C@H](N2C(=O)c3ccc(NCC(=O)N4CCC(CN5CCN(c6ccc(Nc7ncnc8c7ncn8C7CC(NC(=O)Cc8ccccc8)C7)cc6)CC5)CC4)cc3C2=O)C(=O)N1 (stereo partly drawn) [Compound 177, N-((1s,3s)-3-(6-((4-(4-((1-((2-(2,6-dioxopiperidin-3-yl)-1,3-dioxoisoindolin-5-yl)glycyl)piperidin-4-yl)methyl)piperazin-1-yl)phenyl)amino)-9H-purin-9-yl)cyclobutyl)-2-phenylacetamide]
30/30/30%	30/30/30%	30/30/30%	20%	80%	0%	O=C1CCC(N2C(=O)c3cccc(N4CCC(CN5CCC(CNc6ncnc7c6ncn7[C@H]6C[C@@H](NC(=O)Cc7ccccc7)C6)CC5)CC4)c3C2=O)C(=O)N1 (stereo partly drawn) [Compound 180, N-((1s,3s)-3-(6-(((1-((1-(2-(2,6-dioxopiperidin-3-yl)-1,3-dioxoisoindolin-4-yl)piperidin-4-yl)methyl)piperidin-4-yl)methyl)amino)-9H-purin-9-yl)cyclobutyl)-2-phenylacetamide]
40%	30%	50%	50%	40%	0%	O=C1CC[C@H](N2C(=O)c3ccc(N4CCC(CN5CCC(CNc6ncnc7c6ncn7C6CC(NC(=O)Cc7ccccc7)C6)CC5)CC4)cc3C2=O)C(=O)N1 (stereo partly drawn) [Compound 181, N-((1s,3s)-3-(6-(((1-((1-(2-(2,6-dioxopiperidin-3-yl)-1,3-dioxoisoindolin-5-yl)piperidin-4-yl)methyl)piperidin-4-yl)methyl)amino)-9H-purin-9-yl)cyclobutyl)-2-phenylacetamide]
70%	50%	50%	20%	10%	0%	O=C1CC[C@H](N2C(=O)c3cccc(OCC(=O)N4CCC(CN5CCC(CNc6ncnc7c6ncn7C6CC(NC(=O)Cc7ccccc7)C6)CC5)CC4)c3C2=O)C(=O)N1 (stereo partly drawn) [Compound 182, N-((1s,3s)-3-(6-(((1-((1-(2-((2-(2,6-dioxopiperidin-3-yl)-1,3-dioxoisoindolin-4-yl)oxy)acetyl)piperidin-4-yl)methyl)piperidin-4-yl)methyl)amino)-9H-purin-9-yl)cyclobutyl)-2-phenylacetamide]
70%	70%	50%	0/0/0%	0/0/0%	0/0/0%	O=C1CC[C@H](N2C(=O)c3cccc(NCC(=O)N4CCC(CN5CCC(CNc6ncnc7c6ncn7C6CC(NC(=O)Cc7ccccc7)C6)CC5)CC4)c3C2=O)C(=O)N1 (stereo partly drawn) [Compound 184, N-((1s,3s)-3-(6-(((1-((1-((2-(2,6-dioxopiperidin-3-yl)-1,3-dioxoisoindolin-4-yl)glycyl)piperidin-4-yl)methyl)piperidin-4-yl)methyl)amino)-9H-purin-9-yl)cyclobutyl)-2-phenylacetamide]
100/100/100%	100/100/100%	100/100/100%	0/0/0%	0/0/0%	0/0/0%	O=C1CCC(N2C(=O)c3ccc(NCC(=O)N4CCC(CN5CCC(CNc6ncnc7c6ncn7[C@H]6C[C@@H](NC(=O)Cc7ccccc7)C6)CC5)CC4)cc3C2=O)C(=O)N1 (stereo partly drawn) [Compound 185, N-((1s,3s)-3-(6-(((1-((1-((2-(2,6-dioxopiperidin-3-yl)-1,3-dioxoisoindolin-5-yl)glycyl)piperidin-4-yl)methyl)piperidin-4-yl)methyl)amino)-9H-purin-9-yl)cyclobutyl)-2-phenylacetamide]
